Laboratory results reported in patent publication US11977071B2, “Method for screening for platelet production promoters” (Kyoto University, priority 2016, dated 2024).

How the values were obtained:
[1] = system: immortalized megakaryocyte cell line MKCL #12-23 cre2; assay: Time course of VENUS expression and platelet number with or without SR1 on 10T1/2R feeder cells, FACS; assay type: cell-based, human; details: 0.75 μM SR1 with 10 μM Y-27632, TPO, SCF; day 0 to day 7
Protocol: Continuing, the immortalized megakaryocyte cell line was cultured on 10T1/2R feeder cells in differentiation medium containing 50 ng/ml of TPO and 50 ng/ml of SCF or differentiation medium containing 0.75 μM SR1, 10 μM Y-27632, 50 ng/ml of TPO and 50 ng/ml of SCF, followed by suspending the cells and harvesting the supernatant on day 0, day 1, day 3, day 4, day 6 and day 7 of culturing and analyzing the cells by FACS after staining with anti-CD41a antibody and anti-CD42b antibody.

[2] = system: TUBB1 expression (VENUS reporter) in immortalized megakaryocyte cell line MKCL #12-23 cre2; assay: Secondary screening: VENUS fluorescence intensity in reporter immortalized megakaryocyte cell line at four concentrations; assay type: cell-based, human; details: 10 μM, 3.3 μM, 1.1 μM and 0.4 μM compound, day 7
Protocol: Secondary screening consisted of seeding the immortalized megakaryocyte cell line obtained according to the method described above into a 96-well dish and culturing after adding 10 μM Y-27632, 50 ng/ml of TPO, 50 ng/ml of SCF and the primary candidate compounds at concentrations of 10 μM, 3.3 μM, 1.1 μM and 0.4 μM each. The cells were also cultured in differentiation medium containing 0.75 μM SR1, 10 μM Y-27632, 50 ng/ml of TPO and 50 ng/ml of SCF (positive control) or differentiation medium containing 0.1% DMSO, 10 μM Y-27632, 50 ng/ml of TPO and 50 ng/ml of SCF (negative control). On day 7 of culturing, the fluorescence intensity of VENUS in each compound group was measured with Array Scan VTI (Thermo Scientific), and the value of fluorescence intensity of each compound was corrected according to the fluorescence intensity of the positive control (assigned a value of 100%) and the fluorescence intensity of the negative control (assigned a value of 0%). […] The secondary candidate compounds consisted of 35 types of compounds, and included, for example, TCS-359 (CAS NO. 301305-73-7, Santa Cruz Biotechnology, Inc.) and C59 (CAS NO. 1243243-89-1).

[3] = system: megakaryocyte cells (non-immortalized) derived from iPS cells (TkDA3-4); assay: Platelet production of iPS cell (TkDA3-4)-derived megakaryocyte cells in absence of feeder cells, FACS; assay type: cell-based; details: 10 days, 1 μM C59, 3.3 μM TCS-359, 0.75 μM SR1
Protocol: After culturing iPS cells (TkDA3-4), the colonies were detached with a cell scraper and cultured in differentiation medium on 10T1/2 feeder cells following the addition of […] of VEGF in accordance with Takayama, N., et al., Blood, 111, pp. 5298-5306, 2008. Fourteen days later, the cells were recovered using a cell scraper and cultured for 10 days in the absence of feeder cells following the addition of 25 U/mL of heparin, 10 μM Y-27632, 100 ng/ml of TPO and 50 ng/ml of SCF, and further adding 0.1% DMSO, 0.75 μM SR1, 1 μM C59 (Albiochem) or 3.3 μM TCS-359 (Santa Cruz Biotechnology, Inc.). Culturing was also carried out in the same manner using feeder cells. The resulting cells were suspended and the supernatant was harvested followed by analyzing by FACS after staining with anti-CD41a antibody and anti-CD42b antibody (FIG. 10).

[4] = system: immortalized megakaryocyte cell line MKCL #12-23 cre2; assay: Platelet production by immortalized megakaryocyte cell line, FACS of supernatant (anti-CD41a, anti-CD42b); assay type: cell-based, human; details: 10 μM, 3.3 μM, 1.1 μM and 0.4 μM compound, day 7, 6-well dish
Protocol: Continuing, the effect of promoting platelet production was confirmed for 28 compounds from among the secondary candidate compounds excluding duplicate compounds and compounds that were unable to be used commercially. The above-mentioned immortalized megakaryocyte cell line was cultured in a 6-well dish in differentiation medium containing each of the compounds at concentrations of 10 μM, 3.3 μM, 1.1 μM and 0.4 μM, 10 μM Y-27632, 50 ng/ml of TPO and 50 ng/ml of SCF, differentiation medium containing 0.75 μM SR1, 10 μM Y-27632, 50 ng/ml of TPO and 50 ng/ml of SCF (positive control), or differentiation medium containing 0.1% DMSO, 10 μM Y-27632, 50 ng/ml of TPO and 50 ng/ml of SCF (negative control), followed by suspending the cells and harvesting the supernatant on day 7 of culturing and analyzing by FACS after staining with anti-CD41a antibody and anti-CD42b antibody. The relative number of platelets was calculated by correcting the number of platelets in the case of using each candidate compound with the number of platelets of the positive control (assigned a value of 100%) and the number of platelets of the negative control (assigned a value of 0%) (FIG. 9).

Compound	expression level of VENUS [1]	number of platelets produced [1]	concentration dependency of VENUS fluorescence intensity [2]	ability to produce platelets compared with SR1 [3]	relative number of platelets (positive control 0.75 μM SR1 = 100%, negative control 0.1% DMSO = 0%) [4]
CC(C)n1cnc2c(NCCc3ccc(O)cc3)nc(-c3csc4ccccc34)nc21 [SR1, StemRegenin 1]	confirmed to rise	confirmed to increase			
COc1ccc(C(=O)Nc2sc3c(c2C(N)=O)CCCC3)cc1OC [TCS-359]			concentration dependency was observed	equal to or greater than that of SR1	
Cc1cc(-c2ccc(CC(=O)Nc3ccc(-c4cccnc4)cc3)cc2)ccn1 [C59]			concentration dependency was observed	equal to or greater than that of SR1	potent platelet inducer
